Measured values: patent publication US8129366B2, “VLA-4 inhibitory drug” (Daiichi Sankyo Company, Limited, priority 2005, dated 2012)

Target: T1, hα4 and β1 integrins (Homo sapiens, UniProt P05556+P13612)
T1 construct: expressed in transfected cells; host or cells: CHO cells
Assay: In vitro inhibition of binding between CHO cells expressing hα4 and β1 integrins and Eu3+-hVCAM-1 D1D7-IgG
Details: for Ki: CHO cells expressing hα4 and β1 integrins, Eu3+-hVCAM-1 D1D7-IgG ligand, without HSA; for IC50: in the presence of 3% human serum albumin (HSA final concentration 3%)
Outline: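 Bound europium-labelled VCAM-1 D1D7-IgG on α4β1-expressing CHO cells was measured by time-resolved fluorescence after washing at 4 °C. Ligand (2 nM working dilution) and test compound, with or without 3% final HSA, were co-incubated for 1 h at room temperature in Mn²⁺-containing HEPES buffer, pH 7.5. IC50 came from % binding inhibition; Ki was calculated from ligand concentration and Scatchard Kd.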

T1 sequence (P13612 34-1032): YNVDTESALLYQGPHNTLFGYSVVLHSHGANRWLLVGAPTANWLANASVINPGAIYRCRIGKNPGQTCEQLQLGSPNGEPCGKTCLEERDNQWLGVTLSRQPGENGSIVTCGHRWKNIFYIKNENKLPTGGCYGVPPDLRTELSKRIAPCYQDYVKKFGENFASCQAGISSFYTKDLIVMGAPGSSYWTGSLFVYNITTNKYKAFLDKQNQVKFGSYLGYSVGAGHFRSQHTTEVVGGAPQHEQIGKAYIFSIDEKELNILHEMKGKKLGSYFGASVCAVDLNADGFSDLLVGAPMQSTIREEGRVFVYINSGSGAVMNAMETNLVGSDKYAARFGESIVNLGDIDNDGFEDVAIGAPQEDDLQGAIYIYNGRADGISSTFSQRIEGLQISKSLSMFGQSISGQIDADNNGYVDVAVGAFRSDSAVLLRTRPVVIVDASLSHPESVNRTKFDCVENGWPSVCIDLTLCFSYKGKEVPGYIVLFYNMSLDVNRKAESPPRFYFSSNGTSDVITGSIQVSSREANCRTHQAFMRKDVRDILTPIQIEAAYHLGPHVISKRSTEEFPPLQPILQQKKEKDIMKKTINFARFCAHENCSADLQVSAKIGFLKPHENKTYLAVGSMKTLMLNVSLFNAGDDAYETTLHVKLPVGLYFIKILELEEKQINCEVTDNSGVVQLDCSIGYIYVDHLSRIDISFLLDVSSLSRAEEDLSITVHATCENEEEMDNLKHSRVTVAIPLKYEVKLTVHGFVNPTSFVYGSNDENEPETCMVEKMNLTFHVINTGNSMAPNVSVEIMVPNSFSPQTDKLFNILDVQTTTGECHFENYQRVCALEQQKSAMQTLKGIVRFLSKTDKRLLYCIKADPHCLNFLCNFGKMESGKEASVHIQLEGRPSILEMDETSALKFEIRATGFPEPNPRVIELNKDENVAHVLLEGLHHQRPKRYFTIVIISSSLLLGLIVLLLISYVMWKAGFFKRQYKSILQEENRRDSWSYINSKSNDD
T1 sequence (P05556 21-798): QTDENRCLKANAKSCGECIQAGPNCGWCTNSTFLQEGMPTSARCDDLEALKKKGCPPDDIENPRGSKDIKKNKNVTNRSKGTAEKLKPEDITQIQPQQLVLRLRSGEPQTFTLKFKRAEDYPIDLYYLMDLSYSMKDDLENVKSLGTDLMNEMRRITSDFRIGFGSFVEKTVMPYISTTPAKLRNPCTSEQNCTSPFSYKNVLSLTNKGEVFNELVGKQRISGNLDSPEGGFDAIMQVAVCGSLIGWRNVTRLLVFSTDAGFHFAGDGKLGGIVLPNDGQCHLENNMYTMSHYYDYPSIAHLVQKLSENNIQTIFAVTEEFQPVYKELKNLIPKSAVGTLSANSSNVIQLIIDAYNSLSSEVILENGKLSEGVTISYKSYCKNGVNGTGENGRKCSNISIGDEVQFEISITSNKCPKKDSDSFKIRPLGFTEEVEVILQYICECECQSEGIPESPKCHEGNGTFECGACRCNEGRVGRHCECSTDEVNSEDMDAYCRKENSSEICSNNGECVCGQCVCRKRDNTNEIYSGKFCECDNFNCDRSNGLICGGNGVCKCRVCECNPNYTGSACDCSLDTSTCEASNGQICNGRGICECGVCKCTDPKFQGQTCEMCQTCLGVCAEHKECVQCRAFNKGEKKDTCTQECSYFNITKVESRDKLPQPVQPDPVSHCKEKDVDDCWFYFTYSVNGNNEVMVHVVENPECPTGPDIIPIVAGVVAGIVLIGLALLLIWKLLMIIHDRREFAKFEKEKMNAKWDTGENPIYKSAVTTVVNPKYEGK

SMILES	Ki [nM]	IC50 [nM]
COCCN1CCN([C@H]2C[C@@H](CO[C@H]3CC[C@H](C(=O)O)CC3)N(C(=O)Cc3cc(Cl)c(NC(=O)c4cn(C)c5ccccc45)cc3Cl)C2)CC1 [Example 137, Trans-4-[1-[[2,5-dichloro-4-[(1-methyl-1H-indol-3-ylcarbonyl)amino]phenyl]acetyl]-(4S)-(4-(2-methoxyethyl)piperazin-1-yl)-(2S)-pyrrolidinylmethoxy]cyclohexanecarboxylic acid]	2.9	8.7
O=C(Nc1ccc(CC(=O)N2C[C@@H](N3CCN(CC(F)(F)F)CC3)C[C@H]2CO[C@H]2CC[C@H](C(=O)O)CC2)cc1Cl)c1csc2ccccc12 [Example 134, Trans-4-[1-[[4-[(benzo[b]thiophen-3-ylcarbonyl)amino]-3-chlorophenyl]acetyl]-(4S)-[4-(2,2,2-trifluoroethyl)piperazin-1-yl]-(2S)-pyrrolidinylmethoxy]cyclohexanecarboxylic acid]	1.2	6.8
CCC1(OC)CN([C@H]2C[C@@H](CO[C@H]3CC[C@H](C(=O)O)CC3)N(C(=O)Cc3cc(Cl)c(NC(=O)c4csc5ccccc45)cc3F)C2)C1 [Example 17, Trans-4-[1-[[4-[(benzo[b]thiophen-3-ylcarbonyl)amino]-5-chloro-2-fluorophenyl]acetyl]-(4S)-(3-ethyl-3-methoxyazetidin-1-yl)-(2S)-pyrrolidinylmethoxy]cyclohexanecarboxylic acid]	1.8	48
CN1CCN([C@H]2C[C@@H](CO[C@H]3CC[C@H](C(=O)O)CC3)N(C(=O)Cc3cc(Cl)c(NC(=O)c4cn(C)c5ccccc45)cc3Cl)C2)CC1=O [Example 152, Trans-4-[1-[[2,5-dichloro-4-[(1-methyl-1H-indol-3-ylcarbonyl)amino]phenyl]acetyl]-(4S)-(4-methyl-3-oxopiperazin-1-yl)-(2S)-pyrrolidinylmethoxy]cyclohexanecarboxylic acid]	3.9	11
Cn1cc(C(=O)Nc2cc(Cl)c(CC(=O)N3C[C@@H](N4CCC(S(C)(=O)=O)CC4)C[C@H]3CO[C@H]3CC[C@H](C(=O)O)CC3)cc2Cl)c2ccccc21 [Example 108, Trans-4-[1-[[2,5-dichloro-4-[(1-methyl-1H-indol-3-ylcarbonyl)amino]phenyl]acetyl]-(4S)-(4-methanesulfonylpiperidin-1-yl)-(2S)-pyrrolidinylmethoxy]cyclohexanecarboxylic acid]	3.1	8.2
CN1CCN([C@H]2C[C@@H](CO[C@H]3CC[C@H](C(=O)O)CC3)N(C(=O)Cc3cc(Cl)c(NC(=O)c4csc5ccccc45)cc3F)C2)CC1 [Example 111, Trans-4-[1-[[4-[(benzo[b]thiophen-3-ylcarbonyl)amino]-5-chloro-2-fluorophenyl]acetyl]-(4S)-(4-methylpiperazin-1-yl)-(2S)-pyrrolidinylmethoxy]cyclohexanecarboxylic acid]	0.29	1.2
O=C(Nc1cc(F)c(CC(=O)N2C[C@@H](N3CCC(F)(F)C3)C[C@H]2CO[C@H]2CC[C@H](C(=O)O)CC2)cc1Cl)c1csc2ccccc12 [Example 38, Trans-4-[1-[[4-[(benzo[b]thiophen-3-ylcarbonyl)amino]-5-chloro-2-fluorophenyl]acetyl]-(4S)-(3,3-difluoropyrrolidin-1-yl)-(2S)-pyrrolidinylmethoxy]cyclohexanecarboxylic acid]	1.7	24
O=C(Nc1cc(F)c(CC(=O)N2C[C@@H](n3ccnc3)C[C@H]2CO[C@H]2CC[C@H](C(=O)O)CC2)cc1Cl)c1csc2ccccc12 [Example 67, Trans-4-[1-[[4-[(benzo[b]thiophen-3-ylcarbonyl)amino]-5-chloro-2-fluorophenyl]acetyl]-(4S)-(imidazol-1-yl)-(2S)-pyrrolidinylmethoxy]cyclohexanecarboxylic acid]	1.2	12
C[C@@H]1CN([C@H]2C[C@@H](CO[C@H]3CC[C@H](C(=O)O)CC3)N(C(=O)Cc3cc(Cl)c(NC(=O)c4csc5ccccc45)cc3Cl)C2)C[C@H](C)O1 [Example 82, Trans-4-[1-[[4-[(benzo[b]thiophen-3-ylcarbonyl)amino]-2,5-dichlorophenyl]acetyl]-(4S)-(cis-2,6-dimethylmorpholin-4-yl)-(2S)-pyrrolidinylmethoxy]cyclohexanecarboxylic acid]	2.4	18
Cn1cc(C(=O)Nc2cc(F)c(CC(=O)N3C[C@@H](N4CCSCC4)C[C@H]3CO[C@H]3CC[C@H](C(=O)O)CC3)cc2Cl)c2ccccc21 [Example 158, Trans-4-[1-[[5-chloro-2-fluoro-4-[(1-methyl-1H-indol-3-ylcarbonyl)amino]phenyl]acetyl]-(4S)-(thiomorpholin-4-yl)-(2S)-pyrrolidinylmethoxy]cyclohexanecarboxylic acid]	4	16
O=C(Nc1cc(F)c(CC(=O)N2C[C@@H](N3CCCS3(=O)=O)C[C@H]2CO[C@H]2CC[C@H](C(=O)O)CC2)cc1Cl)c1coc2ccccc12 [Example 70, Trans-4-[1-[[4-[(benzo[b]furan-3-ylcarbonyl)amino]-5-chloro-2-fluorophenyl]acetyl]-(4S)-(1,1-dioxo-1λ^6-isothiazolidin-2-yl)-(2S)-pyrrolidinylmethoxy]cyclohexanecarboxylic acid]	18	62
CCO[C@H]1[C@H](N2CCCCC2)CN(C(=O)Cc2cc(Cl)c(NC(=O)c3cn(C)c4ccccc34)cc2F)[C@@H]1CO[C@H]1CC[C@H](C(=O)O)CC1 [Example 97, Trans-4-[1-[[5-chloro-2-fluoro-4-[(1-methyl-1H-indol-3-ylcarbonyl)amino]phenyl]acetyl]-(3R)-ethoxy-(4R)-(piperidin-1-yl)-(2R)-pyrrolidinylmethoxy]cyclohexanecarboxylic acid]	1.6	4.9
CC1CN([C@H]2C[C@@H](CO[C@H]3CC[C@H](C(=O)O)CC3)N(C(=O)Cc3cc(Cl)c(NC(=O)c4cn(C)c5ccccc45)cc3Cl)C2)CC(C)O1 (stereo partly drawn) [Example 91, Trans-4-[1-[[2,5-dichloro-4-[(1-methyl-1H-indol-3-ylcarbonyl)amino]phenyl]acetyl]-(4S)-(2,6-dimethylmorpholin-4-yl)-(2S)-pyrrolidinylmethoxy]cyclohexanecarboxylic acid]	2.4	81
C[C@@H]1CN([C@H]2C[C@@H](CO[C@H]3CC[C@H](C(=O)O)CC3)N(C(=O)Cc3ccc(NC(=O)c4cn(C)c5ccccc45)c(Cl)c3)C2)C[C@H](C)O1 [Example 85, Trans-4-[1-[[3-chloro-4-[(1-methyl-1H-indol-3-ylcarbonyl)amino]phenyl]acetyl]-(4S)-(cis-2,6-dimethylmorpholin-4-yl)-(2S)-pyrrolidinylmethoxy]cyclohexanecarboxylic acid]	2	9.2
O=C(Nc1cc(F)c(CC(=O)N2C[C@@H](N3CCN(CC(F)(F)F)CC3)C[C@H]2CO[C@H]2CC[C@H](C(=O)O)CC2)cc1Cl)c1coc2ccccc12 [Example 126, Trans-4-[1-[[4-[(benzo[b]furan-3-ylcarbonyl)amino]-5-chloro-2-fluorophenyl]acetyl]-(4S)-[4-(2,2,2-trifluoroethyl)piperazin-1-yl]-(2S)-pyrrolidinylmethoxy]cyclohexanecarboxylic acid]	2.4	13
CS(=O)(=O)N1CCCN([C@H]2C[C@@H](CO[C@H]3CC[C@H](C(=O)O)CC3)N(C(=O)Cc3cc(Cl)c(NC(=O)c4coc5ccccc45)cc3F)C2)CC1 [Example 170, Trans-4-[1-[[4-[(benzo[b]furan-3-ylcarbonyl)amino]-5-chloro-2-fluorophenyl]acetyl]-(4S)-(4-methanesulfonyl[1,4]-diazepan-1-yl)-(2S)-pyrrolidinylmethoxy]cyclohexanecarboxylic acid]	2.6	11
Cn1cc(C(=O)Nc2cc(Cl)c(CC(=O)N3C[C@@H](N4CCN(CC5CC5)CC4)C[C@H]3CO[C@H]3CC[C@H](C(=O)O)CC3)cc2Cl)c2ccccc21 [Example 115, Trans-4-[1-[[2,5-dichloro-4-[(1-methyl-1H-indol-3-ylcarbonyl)amino]phenyl]acetyl]-(4S)-[(4-cyclopropylmethyl)piperazin-1-yl]-(2S)-pyrrolidinylmethoxy]cyclohexanecarboxylic acid]	4.2	13
Cn1cc(C(=O)Nc2cc(F)c(CC(=O)N3C[C@@H](N4CC[C@H](F)C4)C[C@H]3CO[C@H]3CC[C@H](C(=O)O)CC3)cc2Cl)c2ccccc21 [Example 37, Trans-4-[1-[[5-chloro-2-fluoro-4-[(1-methyl-1H-indol-3-ylcarbonyl)amino]phenyl]acetyl]-(4S)-[(3S)-fluoropyrrolidin-1-yl]-(2S)-pyrrolidinylmethoxy]cyclohexanecarboxylic acid]	2.1	9.2
Cn1cc(C(=O)Nc2cc(F)c(CC(=O)N3C[C@@H](N4CCC(F)(F)CC4)C[C@H]3CO[C@H]3CC[C@H](C(=O)O)CC3)cc2Cl)c2ccccc21 [Example 101, Trans-4-[1-[[5-chloro-2-fluoro-4-[(1-methyl-1H-indol-3-ylcarbonyl)amino]phenyl]acetyl]-(4S)-(4,4-difluoropiperidin-1-yl)-(2S)-pyrrolidinylmethoxy]cyclohexanecarboxylic acid]	4	17
COC1CN([C@H]2C[C@@H](CO[C@H]3CC[C@H](C(=O)O)CC3)N(C(=O)Cc3cc(Cl)c(NC(=O)c4coc5ccccc45)cc3Cl)C2)C1 [Example 6, Trans-4-[1-[[4-[(benzo[b]furan-3-ylcarbonyl)amino]-2,5-dichlorophenyl]acetyl]-(4S)-(3-methoxyazetidin-1-yl)-(2S)-pyrrolidinylmethoxy]cyclohexanecarboxylic acid]	5.9	76
